Laboratory results reported in patent US7772271B2 (priority 2004, dated 2010).

melting point	SMILES
215 to 216 °C	CN(C)/C=N/c1ccc(-c2c(C#N)c3ccc(Oc4ncccn4)cc3n2C2CCC2)cc1Cl [Compound 3300]
174 to 179 °C	Cc1cc(Cl)ccc1Nc1ccc(-c2c(C#N)c3ccc(OC4CCOCC4)cc3n2C2CCC2)cc1 [Compound 3161]
265 to 266 °C	Cc1cccn(-c2ccc3c(C#N)c(-c4ccc(NC(=O)O[C@H](C)C(F)(F)F)cc4)n(C4CCC4)c3c2)c1=O [Compound 3341]
241 to 244 °C	CC(C)OC(=O)Nc1ccc(-c2c(C#N)c3ccc(N4CCCC4)cc3n2C2CCC2)cc1 [Compound 2954]
236 to 243 °C	CC(C)NC(=O)Nc1c(F)cc(-c2c(C#N)c3ccc(Oc4ncccn4)cc3n2C2CCC2)cc1F [Compound 3038]
150 to 153 °C	CC1CCN(C(=O)c2ccc3c(C#N)c(-c4ccc(NC(=O)O[C@H](C)C5CC5)cc4)n(C4CCC4)c3c2)CC1 [Compound 3108]
185 to 188 °C	CC(C)c1ccc(Nc2ccc(-c3c(C#N)c4ccc(OC5CCOCC5)cc4n3C3CCC3)cc2)cc1 [Compound 3127]
213 to 215 °C	CC(C)Nc1ncc(-c2c(C#N)c3ccc(Oc4ncccn4)cc3n2C2CCC2)cn1 [Compound 3327]
227 to 229 °C	C[C@@H](OC(=O)Nc1ccc(-c2c(C#N)c3ccc(Oc4nccnc4C#N)cc3n2C2CCC2)cc1)C1CC1 [Compound 3191]
223 to 227 °C	CC(C)OC(=O)Nc1ccc(-c2c(C#N)c3ccc(OC4CCS(=O)(=O)CC4)cc3n2C2CCCC2)cc1 [Compound 3246]
80 to 83 °C	C[C@@H](OC(=O)Nc1ccc(-c2c(C#N)c3ccc(OCCN4C(=O)CCC4=O)cc3n2C2CCC2)cc1)C1CC1 [Compound 3271]
95 to 112 °C	Cc1ccnc(Oc2ccc3c(C#N)c(-c4ccc(NC(=O)O[C@H](C)C5CC5)cc4C)n(C4CCC4)c3c2)n1 [Compound 3057]
148 to 152 °C	CC(=O)c1cccc(Nc2ccc(-c3c(C#N)c4ccc(OC5CCOCC5)cc4n3C3CCC3)cc2)c1 [Compound 3162]
99 to 101 °C	CC(OC(=O)Nc1ccc(-c2cc3ccc(Oc4ncccn4)cc3n2C2CCC2)cc1)C(F)(F)F (centres unmarked) [compound 2888, {4-[1-cyclobutyl-6-(pyrimidin-2-yloxy)-1H-indole-2-yl]-phenyl}-carbamic acid 2,2,2-trifluoro-1-methyl-ethyl ester]
195 to 201 °C	COc1ccc(Nc2ccc(-c3c(C#N)c4ccc(OC5CCOCC5)cc4n3C3CCC3)cc2)cc1C [Compound 3159]
133 to 134 °C	CCCS(=O)(=O)Nc1ccc(-c2c(C#N)c3cc(C(=O)N(CC)CC)ccc3n2C2CCC2)cc1 [Compound 3095]
177 to 178 °C	CCOC(=O)Nc1ccc(-c2c(C#N)c3ccc(N4CCN(C)CC4)cc3n2CC)cc1 [compound 1339]

melting point	SMILES
203 to 205 °C	CCS(=O)(=O)Nc1ccc(-c2c(C#N)c3ccc(N4CCCCC4)cc3n2C2CCC2)cc1 [Compound 2974]
206 to 208 °C	CC(C)OC(=O)Nc1ccc(-c2c(C#N)c3ccc(N4CCOCC4)cc3n2C2CCC2)cc1 [compound 2800, [4-(3-cyano-1-cyclobutyl-6-morpholin-4-yl-1H-indol-2-yl)-phenyl]-carbamic acid isopropyl ester]
177 to 178 °C	Cc1cc(-c2c(C#N)c3ccc(Oc4nccnc4C#N)cc3n2C2CCC2)ccc1NS(=O)(=O)CC(C)C [Compound 3289]
187 to 196 °C	N#Cc1c(-c2ccc(N3CCCCS3(=O)=O)cc2)n(C2CCC2)c2cc(Oc3cnccn3)ccc12 [Compound 3220]
195 to 197 °C	C[C@@H](OC(=O)Nc1ccc(-c2c(C#N)c3ccc(-c4ccnn4C)cc3n2C2CCC2)cc1)C1CC1 [Compound 3046]
257 to 259 °C	CCCS(=O)(=O)Nc1cc(C)c(-c2c(C#N)c3ccc(Oc4nccnc4C#N)cc3n2C2CCC2)cc1C [Compound 3336]
112 to 119 °C	CCOc1ccc2c([N+](=O)[O-])c(-c3ccc(NC(=O)OC(C)C)cc3)n(CC3CC3)c2c1[N+](=O)[O-] [Compound 3093]
173 to 175 °C	Cc1ccnc(Oc2ccc3c(C#N)c(-c4ccc(NC(C)C)cc4)n(C4CCC4)c3c2)n1 [Compound 3006]
176 to 180 °C	CCCS(=O)(=O)Nc1ccc(-c2c(C#N)c3ccc(Oc4ncccc4C#N)cc3n2C2CCC2)cc1C [Compound 3290]
192 to 193 °C	COCCOc1ccc2c(C#N)c(-c3ccc(NC(=O)OC(C)C4CC4)cc3)n(C3CCC3)c2c1 (centres unmarked) [compound 1423, [4-(3-cyano-1-cyclobutyl-6-(2-methoxyethoxy)-1H-indol-2-yl)-phenyl]-carbamic acid 1-cyclopropyl-ethyl ester]
238 to 241 °C	CCCS(=O)(=O)Nc1ccc(-c2c(C#N)c3ccc(Oc4nccnc4C#N)cc3n2CC2CC2)c(C)c1 [Compound 3248]
196 to 201 °C	CSc1nccc(Oc2ccc3c(C#N)c(-c4ccc(NC(=O)OC(C)C)cc4)n(C4CCC4)c3c2)n1 [Compound 3090]
154 to 160 °C	COCCOc1ccc2c(C#N)c(-c3ccc(C(=O)NCc4ccc(F)cc4)cc3)n(C3CCC3)c2c1 [Compound 3134]
130 °C (dec.)	C[C@H](NS(=O)(=O)Nc1ccc(-c2c(C#N)c3ccc(Oc4ncccc4C#N)cc3n2C2CCC2)cc1)C1CC1 [Compound 3275]
195 to 196 °C	CCOc1ccc2c(C#N)c(-c3ccc(S(=O)(=O)N4CC[C@H](O)C4)cc3)n(C3CCC3)c2c1 [Compound 3085]
227 to 230 °C	CCCS(=O)(=O)Nc1cc(C)c(-c2c(C#N)c3ccc(Oc4ncccc4C#N)cc3n2C2CCC2)cc1C [Compound 3335]
180 to 182 °C	CCOc1ccc2c(c1)c(C#N)c(-c1ccc(N(S(=O)(=O)CC)S(=O)(=O)CC)cc1)n2CC1CC1 [Compound 3078]

Second part, the compound before the results:

SMILES	melting point
CC(C)CS(=O)(=O)Nc1ccc(-c2c(C#N)c3ccc(C(=O)N4CCOCC4)cc3n2C2CCC2)cc1 [Compound 2901]	210 to 212 °C
CCN(CC)C(=O)c1ccc2c(C#N)c(-c3ccc(NS(=O)(=O)C4CC4)cc3)n(C3CCC3)c2c1 [Compound 2294]	205 to 207 °C
COCCOc1ccc2c(C#N)c(-c3ccc(NC(=O)OC(c4ccccc4)C4CC4)cc3)n(C3CC3)c2c1 (centres unmarked) [Compound 1437]	74 to 76 °C
CCOc1ccc2c(C#N)c(-c3ccc(NC(=O)NC(C)COC)cc3)n(C3CCC3)c2c1 (centres unmarked) [Compound 1441]	192 to 196 °C
C[C@H](OC(=O)Nc1ccc(-c2c(C#N)c3cc(OCCCn4cncn4)ccc3n2C2CCC2)cc1)c1ccccc1 [Compound 2733]	206 to 208 °C
CCS(=O)(=O)Nc1ccc(-c2c(C#N)c3ccc(OC4CCOCC4)cc3n2C2CCC2)cc1 [Compound 2745]	207 to 209 °C
CCC(CC)OC(=O)Nc1ccc(-c2c(C#N)c3ccc(OC4CCOCC4)cc3n2C2CCC2)cc1 [Compound 2617]	127 to 129 °C
CCN(CC)C(=O)Oc1ccc(-c2c(C#N)c3ccc(OC4CCOCC4)cc3n2C2CCC2)cc1 [Compound 2816]	137 to 138 °C
C[C@@H](OC(=O)Nc1ccc(-c2c(C#N)c3cc(OCCCn4ccnc4)ccc3n2C2CCC2)cc1)C1CC1 [Compound 2723]	182 to 184 °C
C[C@@H](OC(=O)Nc1ccc(-c2c(C#N)c3ccc(OC4CCOCC4)cc3n2C2CCC2)cc1)C1CC1 [Compound 2696]	126 to 128 °C
CC(C)n1c(-c2ccc(NC(=O)O[C@H](C)C3CC3)cc2)c(C#N)c2ccc(O[C@H]3CCOC3)cc21 [Compound 2742]	189 to 192 °C
C[C@@H](OC(=O)Nc1ccc(-c2c(C#N)c3ccc(Oc4ncccn4)cc3n2C2CCC2)cc1)c1ccc(F)cc1 [Compound 2716]	173 to 175 °C
CC(C)OC(=O)Nc1ccc(-c2c(C#N)c3ccc(OCC(O)CN4CCOCC4)cc3n2C2CCC2)cc1 (centres unmarked) [Compound 1418]	183 to 185 °C
CCOc1ccc2c(C#N)c(-c3ccc(NC(=O)OCc4cccnc4)cc3)n(C3CCC3)c2c1 [Compound 1432]	187 to 194 °C
CCOc1ccc2c(C#N)c(-c3ccc(NC(=O)O[C@H](C)C(F)(F)F)cc3)n(C3CCC3)c2c1 [Compound 2878]	196 to 199 °C
N#Cc1c(-c2ccc(NS(=O)(=O)NCC3CC3)cc2)n(C2CCC2)c2cc(OC3CCOCC3)ccc12 [Compound 2837]	210 to 212 °C
C[C@@H](OC(=O)Nc1ccc(-c2c(C#N)c3cc(OCC4COCO4)ccc3n2C2CCC2)cc1)C(F)(F)F (some centres unmarked) [Compound 2799]	162 to 169 °C
C[C@@H](OC(=O)Nc1ccc(-c2c(C#N)c3ccc(N4CCOCC4)cc3n2C2CCC2)cc1)C(F)(F)F [Compound 2864]	220 to 222 °C
CC(C)n1c(-c2ccc(NC(=O)O[C@H](C)c3ccc(F)cc3)cc2)c(C#N)c2ccc(N3CCOCC3)cc21 [Compound 2953]	231 to 234 °C
C[C@@H](OC(=O)Nc1ccc(-c2c(C#N)c3ccc(OC4CCOCC4)cc3n2C2CC2)cc1)c1ccc(F)cc1 [Compound 2869]	108 to 111 °C
CCCS(=O)(=O)Nc1ccc(-c2c(C#N)c3ccc(N4CCOCC4)cc3n2CC2CC2)cc1 [Compound 2890]	186 to 189 °C
C[C@@H](OC(=O)Nc1ccc(-c2c(C#N)c3ccc(OC4CCOCC4)cc3n2C2CC2)cc1)C1CC1 [Compound 2712]	149 to 151 °C
CCN(C)C(=O)c1ccc2c(C#N)c(-c3ccc(NS(=O)(=O)C4CC4)cc3)n(C3CCC3)c2c1 [Compound 2296]	202 to 205 °C
N#Cc1c(-c2ccc(N3CCCS3(=O)=O)cc2)n(C2CCC2)c2cc(OC3CCOCC3)ccc12 [Compound 2749]	224 to 226 °C
CC[S+]([O-])c1ccc2c(C#N)c(-c3ccc(NC(=O)OC(C)C)cc3)n(C3CCC3)c2c1 (centres unmarked) [Compound 2714]	165 to 168 °C
CCn1c(-c2ccc(N)cc2)c(C#N)c2ccc(OCCOC)cc21 [Compound 1366]	168 to 169 °C
N#Cc1c(-c2ccc(NS(=O)(=O)NCC3CC3)cc2)n(C2CCC2)c2cc(Oc3nccnc3Cl)ccc12 [Compound 2948]	206 to 208 °C
CSCCOc1ccc2c(C#N)c(-c3ccc(NC(=O)OC(C)C)cc3)n(C3CCC3)c2c1 [Compound 2700]	132 to 133 °C
